Entries after “also recorded” stand apart in the source; their conditions may differ. Marks after values point to notes of the source that are not given here.
Key:
Format in all cases: in vivo, rat
[1] = system: extracellular ACh in NAcShell; assay: ACh efflux in NAcShell, infusion by reverse dialysis in freely moving rats; details: for extracellular ACh: 20 min infusion in NAcShell by reverse dialysis, oxotremorine 4 mM (hour following infusion), gallamine 1 mM, scopolamine 10 mM probe concentration
Method: To determine if the M2 drugs act presynaptically on autoreceptors controlling ACh release, freely moving rats received infusions of an M2 agonist or antagonist in the NAcShell for 20 min by reverse dialysis while extracellular ACh was measured.
To determine if the M2 drugs act presynaptically on autoreceptors controlling ACh release, freely moving rats received infusions of an M2 agonist or antagonist in the NAc for 20 min by reverse dialysis while extracellular ACh was measured.

[2] = system: rats (NAcShell injection); assay: locomotor activity in a photocell cage after drug injection in the NAcShell; details: 10 min following injection in NAcShell; arecoline 40 μg, pirenzepine 35 μg, scopolamine 1 μg, gallamine 0.88 μg
Method: FIG. 4 is a graph illustrating the effects of cholinergic drugs on locomotor activity in a photocell cage. Activity in the 10 min following drug injection in the NAcShell (black bars) is expressed as a percentage of control injections normalized to 100% (white bars).
FIG. 4 illustrates the effects of cholinergic drugs on locomotor activity in a photocell cage. Activity in the 10 min following drug injection in the NAc (black bars) is expressed as a percentage of control injections normalized to 100% (white bars).

[3] = system: rats (NAcShell injection); assay: Porsolt swim test after injection of mAChR agonists and antagonists in the NAcShell; details: for Drug (sec), mean swimming time / Percent change of swimming time vs Ringer / Time diff (sec), drug vs Ringer: 600 sec swim test
Method: FIG. 3 is a graph illustrating swimming time following injections of cholinergic drugs in NAc (black bars), compared to Ringer (white bars). (A) Local injection of arecoline, a muscarinic agonist, decreased swim time; the animals quickly gave up (40 μg, −41%, n=8, t=3.53, p<0.01; and 80 μg, −66%, n=6, t=4.12, p<0.01). (B) Pirenzepine, an M1 antagonist, increased swimming escape attempts in the manner of an antidepressant, but note this is a local injection (17.5 μg, n=8, +39%, t=3.63, p<0.01; 35 μg, +40%, n=9, t=7.15, p<0.001). […] (D) Local gallamine, an M2 antagonist, decreased swim time (0.13 μg/side, −21%, n=7, t=3.72, p<0.01; 0.44 μg/side, −37%, n=8, t=2.95, p<0.05; 0.88 μg/side, −36%, n=7, t=4.64, p<0.01). Swimming time following Ringer is normalized to 100%, with each bar representing the mean of the normalized responses across subjects. Swimming time following a drug injection is expressed as a percentage of the swimming time following vehicle injection on a different day. Significant changes in the within-subject response to drug injections are indicated with asterisks (* p<0.05, ** p<0.01, *** p<0.001).
The Porsolt swim test is an animal model of depression widely used as a screen for drugs with potential antidepressant effects in humans and for elucidating the pharmacological mechanisms of action of antidepressant medications. For example, the following procedure may be used:
On the first day of this test (day 1), a rodent (typically a rat) is placed in a cylindrical water tank for 15 min. Then after 24 hours (day 2) and 48 hours (day 3), drug and Ringer are administered to the animal in counterbalanced order. Immediately following each injection, the animal is placed in the swim test for 10 min. The length of time it swims during the swim tests is recorded. “Swimming” is defined by escape behaviors (i.e. diving, rigorous paddling with all four legs, circling the tank, and clambering at the tank walls). ‘Immobility’ was scored as floating and treading water just enough to keep the nose above water. Typically, after the first swimming session, animals become behaviorally depressed as shown by swimming less on later test days (day 2 or 3). […] Antidepressants increase swimming without affecting locomotor activity, whereas non-antidepressant drugs such as certain psychostimulants may also decrease immobility, but also increase locomotor activity in the open field test. Therefore, to screen a potential antidepressant, the swim test is typically followed by test for hyperactivity in the open field.
Rats were placed in the 600 sec (10 min) swim test following injections of drugs in the NAcShell. When not swimming, rats floated or made minimal forepaw movements to keep their noses above water. Each rat received one drug counterbalanced with Ringer on a separate day. The shorter control swim times for the gallamine group, relative to groups that received other drugs, may have been due to a seasonal difference. Control injections, shown in the last line, were made 2 mm dorsal to the accumbens (Pirenzepine Ctrl). Asterisks indicate significant difference between drug and Ringer (* p<0.05; ** p<0.01; *** p<0.001).

[4] = system: NAcShell of rats (ICSS reward threshold); assay: discrete trial current-threshold intracranial self-stimulation (ICSS), drugs infused into NAcShell; details: for ICSS threshold change: vs baseline, N=2; for ICSS threshold, effect in words: infused into the NAcShell during the ICSS procedure
Description: FIG. 2 is a graph illustrating the effect of antagonism of M1 mAChR and agonism of mAChR in the nucleus accumbens shell (NAcShell). The discrete trial current-threshold intracranial self-stimulation paradigm was used to assess the effect of cholinergic drugs infused directly into the NAcShell on reward, independent of performance. See below and Markou and Koob (Neuropsychopharmacology. 1991 January; 4(1):17-26) for detailed description of the paradigm. Thresholds measured in a rat vary little in the 4 pre-drug days (<7% of the mean or baseline). The non-selective mAChR agonist arecoline dose-dependently elevates threshold (0.01 M, +11%; 1.0 M, +57.5%, N=2). Pirenzepine dihydrochloride (Sigma-Aldrich, Saint Louis, Mo.), a selective M1 mAChR antagonist, dose-dependently lowers threshold (0.1 mM, −7%; 100 mM, […], N=2). The drugs were infused into the NAcShell at a steady rate by reversed microdialysis over the hour required to complete threshold testing.
Anhedonia may be assessed by applying the intracranial self-stimulation (ICSS) paradigm. The ICSS may be used to assess anhedonia, reward, hedonic capacity, and motivation in animals. In this paradigm, a rat performs an operant task (e.g. pressing a bar) to receive rewarding electrical stimulation through electrodes implanted into specific areas of the brain, including the lateral hypothalamus (LH), medial forebrain bundle (MFB), ventral tegmental area containing dopamine neurons (VTA), the nucleus accumbens shell or nucleus accumbens medial core, ventral pallidum, orbitofronal cortex (OPFC), medial frontal cortex (MPFC), cingulate cortex, lateral bed nucleus of the stria terminalis of the amygdala (BNST), mediodorsal thalamus (mdTham), lateral septum, the dorsal raphe containing serotonin neurons, the locus coeruleus containing norepinephrine neurons (see FIG. 1). As noted above, these regions supporting ICSS form an interconnected network commonly referred to as the “brain reward circuitry.”
A skilled artisan would recognize that variations of the ICSS paradigm may be used. For example, one of the most commonly used ICSS procedures, which has been experimentally validated and has shown to be reward-selective, is the discrete-trial current-intensity threshold procedure. This procedure directly and reliably assesses an animal's sensitivity to rewards, hedonic capacity, and motivation, independent of performance, i.e., ability to move (for detailed procedures see Markou and Koob, Neuropsychopharmacology. 1991 January; 4(1):17-26). The discrete trial current-intensity threshold ICSS procedure provides unique ways to investigate the anatomical and neurochemical basis of reward and motivation and is an important tool for assessing of the reward-facilitating or anhedonic effects of various drugs or medications.
Lowering of ICSS thresholds indicates facilitation of brain stimulation reward, whereas elevation in ICSS threshold indicates diminished reward value of the stimulation and thus an anhedonic state. Acute administration of most drugs of abuse, including cocaine, amphetamine, nicotine, morphine, and heroin, lower ICSS thresholds in experimental animals, logically because of their rewarding values. By contrast, withdrawal from chronic administration of these drugs elevates ICSS thresholds, indicating an anhedonic state that resembles the negative affective and motivational state of the drug withdrawal syndrome experienced by humans. Elevated ICSS threshold also occurs in animal models of depression. Such elevation in ICSS threshold reflects decreased sensitivity to rewarding stimuli, decreased hedonic capacity or motivation, and/or an aversive and dysphoric affective state of the animal model of depression. Importantly, administration of antidepressants normalizes or lowers ICSS threshold in such animals, indicating a reversal of reward and motivational deficits.
FIG. 2 is a graph illustrating the effect of antagonism of M1 mAChR and agonism of mAChR in the NAcShell. […]

[5] = 17.5 μg/side, control injections 2 mm dorsal to the accumbens

CC[N+](CC)(CC)CCOc1cccc(OCC[N+](CC)(CC)CC)c1OCC[N+](CC)(CC)CC [Gallamine]
extracellular ACh [1]: 437 % of baseline | duration of the ACh increase (until return to baseline) ([1]; gallamine 1 mM: time following the infusion, scopolamine 10 mM): 20 min | locomotor activity vs Ringer, in words [2]: not significantly different from Ringer | Drug (sec), mean swimming time ([3]; 0.13 μg/side in NAcShell): 155 ± 26** sec | Percent change of swimming time vs Ringer ([3]; 0.13 μg/side in NAcShell): −21% | Time diff (sec), drug vs Ringer ([3]; 0.13 μg/side in NAcShell): -41 s | Percent change of swimming time vs Ringer ([3]; 0.13 μg/side in NAcShell, listed as gallamine): −21% | Drug (sec), mean swimming time ([3]; 0.44 μg/side in NAcShell): 148 ± 24* sec | Percent change of swimming time vs Ringer ([3]; 0.44 μg/side in NAcShell): −37% | Time diff (sec), drug vs Ringer ([3]; 0.44 μg/side in NAcShell): -88 s | Percent change of swimming time vs Ringer ([3]; 0.44 μg/side in NAcShell, listed as gallamine): −37%

COC(=O)C1=CCCN(C)C1 [Arecholine]
locomotor activity vs Ringer, in words [2]: significantly decreased | Drug (sec), mean swimming time ([3]; 40.0 μg/side in NAcShell): 235 ± 17** sec | Percent change of swimming time vs Ringer ([3]; 40.0 μg/side in NAcShell): −41% | Time diff (sec), drug vs Ringer ([3]; 40.0 μg/side in NAcShell): -162 s | Percent change of swimming time vs Ringer ([3]; 40.0 μg/side in NAcShell, listed as arecoline): −41% | Drug (sec), mean swimming time ([3]; 80.0 μg/side in NAcShell): 109 ± 34** sec | Percent change of swimming time vs Ringer ([3]; 80.0 μg/side in NAcShell): −66% | Time diff (sec), drug vs Ringer ([3]; 80.0 μg/side in NAcShell): -209 s | Percent change of swimming time vs Ringer ([3]; 80.0 μg/side in NAcShell, listed as arecoline): −66% | ICSS threshold change ([4]; arecoline 0.01 M infused into NAcShell by reversed microdialysis over 1 h): +11% | ICSS threshold change ([4]; arecoline 1.0 M infused into NAcShell by reversed microdialysis over 1 h): +57.5% | ICSS threshold, effect in words [4]: dose-dependently increases ICSS threshold

O=C1CCCN1CC#CCN1CCCC1 [oxotremorine]
extracellular ACh [1]: 55 % of baseline | ACh level in the NAc, effect in words ([1]; inventor's data (Chau et al. 2001)): decreasing ACh

CN1CCN(CC(=O)N2c3ccccc3C(=O)Nc3cccnc32)CC1 [Pirenzepine]
locomotor activity vs Ringer, in words [2]: not significantly different from Ringer; also recorded: without altering activity in the open field | Drug (sec), mean swimming time ([3]; 17.5 μg/side in NAcShell): 480 ± 38** sec | Time diff (sec), drug vs Ringer ([3]; 17.5 μg/side in NAcShell): +134 sec | Drug (sec), mean swimming time [3, 5]: 301 ± 34 s | Percent change of swimming time vs Ringer [3, 5]: −10% | Time diff (sec), drug vs Ringer [3, 5]: -36 s | Drug (sec), mean swimming time ([3]; 35.0 μg/side in NAcShell): 412 ± 26*** sec | Time diff (sec), drug vs Ringer ([3]; 35.0 μg/side in NAcShell): +117 sec | immobility in the swim test, effect in words ([3]; infusion into the NAcShell): decreases immobility | ICSS threshold, effect in words [4]: dose-dependently lowers ICSS threshold | ICSS threshold change ([4]; pirenzepine 0.1 mM infused into NAcShell by reversed microdialysis over 1 h): −7% | ICSS threshold change ([4]; pirenzepine 100 mM infused into NAcShell by reversed microdialysis over 1 h): 14%

— US20130289019A1, “METHODS OF TREATING BEHAVIORIAL AND/OR MENTAL DISORDERS” (AMAZING GRACE, INC., priority 2012, published 2013)
